Laboratory results reported in patent US20240317735A1, “HYDROISOQUINOLINE OR HYDRONAPHTHYRIDINE COMPOUNDS FOR THE TREATMENT OF AUTOIMMUNE DISEASE” (Hoffmann-La Roche Inc., priority 2020, published 2024).
pIC50: −log10 of the molar value.

Assays:
[1] = biological target: T1, TLR9 (Homo sapiens, UniProt Q9NR96); assay: HEK293-Blue-hTLR-9 cells assay (SEAP reporter, ODN2006 stimulation); type: cell-based; design: host or cells: HEK293 (HEK-Blue hTLR9); details: HEK293-Blue-hTLR9 cells, ODN2006, 20 hrs; read-out: HEK/hTLR9 IC50
T1 sequence (Q9NR96 26-1032): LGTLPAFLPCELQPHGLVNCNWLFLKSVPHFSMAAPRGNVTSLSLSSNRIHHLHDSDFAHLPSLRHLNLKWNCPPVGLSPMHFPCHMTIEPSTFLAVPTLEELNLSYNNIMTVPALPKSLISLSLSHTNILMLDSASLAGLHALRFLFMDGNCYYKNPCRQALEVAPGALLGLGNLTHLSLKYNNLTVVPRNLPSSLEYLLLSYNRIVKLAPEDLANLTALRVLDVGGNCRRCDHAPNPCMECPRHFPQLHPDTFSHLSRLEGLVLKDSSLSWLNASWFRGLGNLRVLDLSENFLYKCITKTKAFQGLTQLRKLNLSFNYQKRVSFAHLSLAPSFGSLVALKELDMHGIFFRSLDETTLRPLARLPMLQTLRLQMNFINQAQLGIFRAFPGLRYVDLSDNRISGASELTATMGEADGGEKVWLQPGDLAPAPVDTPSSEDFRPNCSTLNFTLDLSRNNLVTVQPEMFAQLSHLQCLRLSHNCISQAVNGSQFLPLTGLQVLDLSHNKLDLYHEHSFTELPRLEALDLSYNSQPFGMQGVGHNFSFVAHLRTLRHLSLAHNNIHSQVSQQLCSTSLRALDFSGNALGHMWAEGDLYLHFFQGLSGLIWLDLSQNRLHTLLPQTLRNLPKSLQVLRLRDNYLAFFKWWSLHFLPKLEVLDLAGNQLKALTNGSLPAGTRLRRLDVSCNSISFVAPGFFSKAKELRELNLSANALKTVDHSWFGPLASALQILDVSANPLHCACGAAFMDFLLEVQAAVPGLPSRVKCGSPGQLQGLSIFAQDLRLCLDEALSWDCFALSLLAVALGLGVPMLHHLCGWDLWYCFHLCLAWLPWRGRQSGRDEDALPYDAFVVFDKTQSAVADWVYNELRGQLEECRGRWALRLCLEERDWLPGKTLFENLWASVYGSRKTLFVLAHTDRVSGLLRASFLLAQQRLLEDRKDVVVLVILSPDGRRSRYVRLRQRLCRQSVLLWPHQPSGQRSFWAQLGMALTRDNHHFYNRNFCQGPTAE
Method in brief: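 Antagonist format: cells in DMEM/10% FBS exposed to serially diluted compound (1% DMSO) plus ODN2006 stimulation for 20 h at 37°C. Supernatant SEAP measured with QUANTI-Blue substrate, 2 h at 37°C, absorbance 620–655 nm.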

[2] = biological target: T2, hERG channel (Homo sapiens, UniProt Q12809); assay: hERG channel inhibition assay (patch-clamp, CHOhERG cells); type: cell-based; details: for pIC50 / IC20: CHOhERG cells, whole-cell patch-clamp; for IC20: human, CHO cells stably expressing hERG (CHOhERG); for hERG IC20/TLR7 IC50 / hERG IC20/TLR8 IC50 / hERG IC20/TLR9 IC50: safety ratio; for hERG IC20/TLR7 IC50: hERG IC20 over HEK/hTLR7 IC50; for hERG IC20/TLR8 IC50: hERG IC20 over HEK/hTLR8 IC50; for hERG IC20/TLR9 IC50: hERG IC20 over HEK/hTLR9 IC50
T2 construct: expressed in transfected cells; host or cells: CHO (CHOhERG)
Experimental: The hERG K^+ channels were cloned in humans and stably expressed in a CHO (Chinese hamster ovary) cell line. CHOhERG cells were used for patch-clamp (voltage-clamp, whole-cell) experiments. Cells were stimulated by a voltage pattern to activate hERG channels and conduct IKhERG currents (rapid delayed outward rectifier potassium current of the hERG channel). After the cells were stabilized for a few minutes, the amplitude and kinetics of IKhERG were recorded at a stimulation frequency of 0.1 Hz (6 bpm). Thereafter, the test compound was added to the preparation at increasing concentrations. For each concentration, an attempt was made to reach a steady-state effect, usually, this was achieved within 3-10 min at which time the next highest concentration was applied. The amplitude and kinetics of IKhERG are recorded in each concentration of the drug which were compared to the control values (taken as 100%). (references: Redfern W S, Carlsson L, Davis A S, Lynch W G, MacKenzie I, Palethorpe S, Siegl P K, Strang I, Sullivan A T, Wallis R, Camm A J, Hammond T G. 2003; Relationships between preclinical cardiac electrophysiology, clinical QT interval prolongation and torsade de pointes for a broad range of drugs: evidence for a provisional safety margin in drug development. Cardiovasc. Res. 58:32-45, Sanguinetti MC, Tristani-Firouzi M. 2006; hERG potassium channels and cardiac arrhythmia. Nature 440:463-469, Webster R, Leishman D, Walker D. 2002; Towards a drug concentration effect relationship for QT prolongation and torsades de pointes. Curr. Opin. Drug Discov. Devel. 5:116-26).

T2 sequence (Q12809 whole entry): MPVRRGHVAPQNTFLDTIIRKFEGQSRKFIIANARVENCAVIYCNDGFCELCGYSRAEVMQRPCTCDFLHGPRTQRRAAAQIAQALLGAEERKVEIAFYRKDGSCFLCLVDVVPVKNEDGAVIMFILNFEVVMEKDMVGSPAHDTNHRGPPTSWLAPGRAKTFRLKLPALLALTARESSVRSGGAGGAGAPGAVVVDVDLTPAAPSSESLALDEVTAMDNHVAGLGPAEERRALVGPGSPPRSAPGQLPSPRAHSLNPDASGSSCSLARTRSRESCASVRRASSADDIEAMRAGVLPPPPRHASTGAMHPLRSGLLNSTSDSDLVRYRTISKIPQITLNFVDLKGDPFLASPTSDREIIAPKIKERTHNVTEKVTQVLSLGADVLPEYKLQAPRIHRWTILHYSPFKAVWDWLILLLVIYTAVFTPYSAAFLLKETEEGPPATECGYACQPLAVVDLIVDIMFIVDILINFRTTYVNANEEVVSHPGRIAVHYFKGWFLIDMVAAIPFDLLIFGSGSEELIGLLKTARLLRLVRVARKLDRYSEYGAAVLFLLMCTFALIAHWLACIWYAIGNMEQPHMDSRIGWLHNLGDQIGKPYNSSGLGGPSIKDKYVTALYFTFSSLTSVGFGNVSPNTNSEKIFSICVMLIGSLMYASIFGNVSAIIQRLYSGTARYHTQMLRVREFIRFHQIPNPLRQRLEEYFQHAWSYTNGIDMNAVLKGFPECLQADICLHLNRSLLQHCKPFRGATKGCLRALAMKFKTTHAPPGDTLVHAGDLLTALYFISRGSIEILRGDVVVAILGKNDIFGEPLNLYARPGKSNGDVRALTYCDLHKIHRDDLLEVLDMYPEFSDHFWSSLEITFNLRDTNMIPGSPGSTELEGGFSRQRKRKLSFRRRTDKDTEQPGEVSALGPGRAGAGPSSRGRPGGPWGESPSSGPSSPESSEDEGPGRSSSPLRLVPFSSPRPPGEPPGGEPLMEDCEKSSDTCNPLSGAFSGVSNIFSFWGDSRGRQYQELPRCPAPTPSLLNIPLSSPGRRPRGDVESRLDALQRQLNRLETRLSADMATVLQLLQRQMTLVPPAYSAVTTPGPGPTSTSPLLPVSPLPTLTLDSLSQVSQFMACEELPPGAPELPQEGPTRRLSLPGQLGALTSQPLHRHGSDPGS

Row | Structure (SMILES) | pIC50 [1] | pIC50 [2] | IC20 [2] [µM] | hERG IC20/TLR7 IC50 [2] | hERG IC20/TLR8 IC50 [2] | hERG IC20/TLR9 IC50 [2]
1 | C[C@H]1CN(c2ccnc3c2cnn3C)Cc2ccc(OC[C@H]3CNCCN3)cc21 [Example 18, (4R)-4-methyl-2-(1-methylpyrazolo[3,4-b]pyridin-4-yl)-6-[[(2R)-piperazin-2-yl]methoxy]-3,4-dihydro-1H-isoquinoline] | 6.95 | < 4.70 | > 10 | >1250.0 | >2500.0 | >90.1
2 | C[C@H]1CN(c2ccnc3c2cnn3C)Cc2ccc(OC[C@@H]3CNCCN3)cc21 [Example 19, (4R)-4-methyl-2-(1-methylpyrazolo[3,4-b]pyridin-4-yl)-6-[[(2S)-piperazin-2-yl]methoxy]-3,4-dihydro-1H-isoquinoline] | 7.00 | < 4.70 | 6.3 | 787.5 | 1575.0 | 62.4
3 | CO[C@@H]1CN(c2ccc3c(c2)[C@@H](C)CN(c2ccnc4c2cnn4C)C3)C[C@H]1N [Example 20, (3R,4R)-4-methoxy-1-[(4R)-4-methyl-2-(1-methylpyrazolo[3,4-b]pyridin-4-yl)-3,4-dihydro-1H-isoquinolin-6-yl]pyrrolidin-3-amine] | 6.62 | < 4.70 | 6.2 | 2066.7 | 364.7 | 25.9
4 | C[C@H]1CN(c2ccnc3c2cnn3C)Cc2ccc(N3CC4(CNCCO4)C3)cc21 [Example 21, 2-[(4R)-4-methyl-2-(1-methylpyrazolo[3,4-b]pyridin-4-yl)-3,4-dihydro-1H-isoquinolin-6-yl]-5-oxa-2,8-diazaspiro[3.5]nonane] | 6.43 | < 4.70 | > 10 | >1428.6 | >714.3 | >26.9
5 | C[C@H]1CN(c2ccnc3c2cnn3C)Cc2ccc(N3C[C@@H]4CNCCN4C3=O)cc21 [Example 25, (8aS)-2-[(4R)-4-methyl-2-(1-methylpyrazolo[3,4-b]pyridin-4-yl)-3,4-dihydro-1H-isoquinolin-6-yl]-1,5,6,7,8,8a-hexahydroimidazo[1,5-a]pyrazin-3-one] | 6.54 | < 4.70 | > 10 | >666.7 | >33333.3 | >34.4
6 | Cc1cc(N2Cc3ccc(OC[C@H]4CNCCN4)cc3[C@@H](C)C2)c2cnn(C)c2n1 [Example 30, (4R)-2-(1,6-dimethylpyrazolo[3,4-b]pyridin-4-yl)-4-methyl-6-[[(2R)-piperazin-2-yl]methoxy]-3,4-dihydro-1H-isoquinoline] | 7.06 | < 4.70 | 6.5 | 175.7 | 3250.0 | 73.9
7 | Cc1cc(N2Cc3ccc(OC[C@@H]4CNCCN4)cc3[C@@H](C)C2)c2cnn(C)c2n1 [Example 31, (4R)-2-(1,6-dimethylpyrazolo[3,4-b]pyridin-4-yl)-4-methyl-6-[[(2S)-piperazin-2-yl]methoxy]-3,4-dihydro-1H-isoquinoline] | 6.98 | < 4.70 | 8.5 | 354.2 | 4250.0 | 81.0
8 | C[C@H]1CN(c2ccnc3c2cnn3C)Cc2ccc(N3CC4(CNC4)CC3=O)cc21 [Example 34, 6-[(4R)-4-methyl-2-(1-methylpyrazolo[3,4-b]pyridin-4-yl)-3,4-dihydro-1H-isoquinolin-6-yl]-2,6-diazaspiro[3.4]octan-7-one] | 6.70 | < 4.70 | > 10 | >384.6 | >384.6 | >50.5
9 | C[C@H]1CN(c2ccnc3c2cnn3C)Cc2ccc(OCCN3CCNCC3)cc21 [Example 40, (4R)-4-methyl-2-(1-methylpyrazolo[3,4-b]pyridin-4-yl)-6-(2-piperazin-1-ylethoxy)-3,4-dihydro-1H-isoquinoline] | 6.49 | < 4.70 | > 10 | >1250.0 | >1428.6 | >30.7
10 | C[C@H]1CN(c2ccnc3c2cnn3C)Cc2ccc(OC3CN(C4CCNCC4)C3)cc21 [Example 41, (4R)-4-methyl-2-(1-methylpyrazolo[3,4-b]pyridin-4-yl)-6-[1-(4-piperidyl)azetidin-3-yl]oxy-3,4-dihydro-1H-isoquinoline] | 7.33 | < 4.70 | 5.1 | 728.6 | 637.5 | 108.5
11 | C[C@H]1CN(c2ccnc3c2cnn3C)Cc2ccc(O[C@@H]3C[C@H]4CNCCN4C3)cc21 [Example 42, (4R)-4-methyl-2-(1-methylpyrazolo[3,4-b]pyridin-4-yl)-6-[[(7R,8aS)-1,2,3,4,6,7,8,8a-octahydropyrrolo[1,2-a]pyrazin-7-yl]oxy]-3,4-dihydro-1H-isoquinoline] | 6.40 | < 4.70 | > 10 | >3333.3 | >5000.0 | >25.1
12 | C[C@H]1CN(c2ccnc3c2cnn3C)Cc2ccc(OC[C@@H]3CNCCN3C)cc21 [Example 44, (4R)-4-methyl-2-(1-methylpyrazolo[3,4-b]pyridin-4-yl)-6-[[(2S)-1-methylpiperazin-2-yl]methoxy]-3,4-dihydro-1H-isoquinoline] | 6.63 | < 4.70 | > 10 | >666.7 | >2000.0 | >42.7
13 | CO[C@H]1CN(c2cc3c(cn2)CN(c2cc(C)nc4c2cnn4C)C[C@@H]3C)CC[C@@H]1N [Example 73, (3S,4S)-3-methoxy-1-[(5R)-7-(1,6-dimethylpyrazolo[3,4-b]pyridin-4-yl)-5-methyl-6,8-dihydro-5H-2,7-naphthyridin-3-yl]piperidin-4-amine] | 6.94 | < 4.70 | 6.9 | 1725.0 | 3450.0 | 60.0
14 | Cc1cc(N2Cc3cnc(O[C@@H]4C[C@H]5CNCCN5C4)cc3[C@@H](C)C2)c2cnn(C)c2n1 [Example 76, (4R)-2-(1,6-dimethylpyrazolo[3,4-b]pyridin-4-yl)-4-methyl-6-[[(7R,8aS)-1,2,3,4,6,7,8,8a-octahydropyrrolo[1,2-a]pyrazin-7-yl]oxy]-3,4-dihydro-1H-2,7-naphthyridine] | 6.84 | < 4.70 | > 10 | >526.3 | >625.0 | >69.4
